In patent publication US20120283298A1, “METHODS FOR TREATING MEMORY IMPAIRMENT” (priority 2009, published 2012):
“Also recorded” adds a separate entry of the source.

What was measured:
[1] = tested on: SAMP8 mice; test: T-maze foot-shock avoidance acquisition after acute i.c.v. injection; type: in vivo, mouse
Description: T-Maze Testing. The T-maze avoidance apparatus training and testing procedures have been previously described, and shown as an effective means to assess learning in SAMP8 mice (Flood and Morley, 1993; Farr et al., 2000). […] Octreotide is a primarily SSTR2 agonist, of the SRIF-1 family, serving as an additional control set. Forty-eight hours prior to testing, the mice were anesthetized with 2,2,2-tribromoethanol, placed in a stereotaxic instrument, and the scalp was deflected. A unilateral hole was drilled 0.5 mm anterior and 1.0 mm to the right of the bregma. […] This time frame is consistent with work by others showing somatostatin administration over 24 hrs decreased Aβ1-42 concentrations in the brain (Saito et al., 2005). […] Twenty-four hours following drug administration mice were evaluated using the T-maze test.
The T-maze consisted of a black plastic alley with a start box at one end and two goal boxes at the other. The start box was separated from the alley by a plastic guillotine door, which prevented movement down the alley until training began. An electrifiable stainless steel rod floor ran throughout the maze to deliver scrambled foot-shock. Mice were trained and tested between 07:00 and 15:00 h. Mice were not permitted to explore the maze prior to training. A block of training trials began when a mouse was placed into the start box. The guillotine door was raised and a buzzer sounded simultaneously; 5 s later foot-shock was applied. The goal box entered on the first trial was designated “incorrect” and the foot-shock was continued until the mouse entered the other goal box, which in all subsequent trials was designated as “correct” for the particular mouse. At the end of the acquisition trial, mice were decapitated and the brains flash frozen and stored at −80° C. for subsequent analyses.

[2] = tested on: Aβ42; test: ELISA analysis of Aβ42 in brain tissue ex vivo; design: species or system mouse
Experimental: Brain levels of Aβ42 were evaluated ex vivo, from flash frozen whole brain tissue following respective behavioral analyses, using ultra-centrifugation and solid phase extraction methods (Lanz and Schachter, 2006; Zupa-Fernandez et al., 2007), coupled with Enzyme-linked immunosorbent assay (ELISA) analysis. Half of the brain tissue was dedicated to Western blot examinations with remainder used for Aβ42 evaluation. Brain tissue was homogenized and incubated with 1 mL 50 mM NaCl, 0.4% DEA, pH=10, containing protease inhibitor (Roche, Indianapolis, Ind.). Samples were kept on ice for 20 min, followed by sonication at 30% for 30 sec. Samples were then incubated at room temperature (3 h) followed by centrifugation at 355,000×g for 30 min (4° C.). Supernatant was collected for extraction using Oasis HLB 3 cc columns (Waters, Milford, Mass.). Oasis columns were activated with 2 mL methanol (MeOH), followed by 2 mL diH2O. Brain homogenates were loaded in 1 mL increments. Samples were then washed sequentially with 1 mL volumes of 5% and 30% MeOH, then eluted with 1 mL 2% NH4OH in 90% MeOH. Eluted samples were collected and vacuum-centrifuged at 1400 rpm, 60° C. for 90-120 min. Once samples were dried completely, they were stored at −80° C. until assay. Samples were reconstituted and analyzed in duplicate according to ELISA assay directions (Beta-Mark Aβx-42, Covance, Dedham, Mass.) via luminometer (Lumistar Optima, BMG Labtech, Durham, N.C.). Aβ42 levels were calculated from linear-regression curve in pg/ml and then set to gram weight of brain tissue and normalized to respective controls.
Evaluation of Aβ. Brain levels of Aβ42 were evaluated ex vivo as described above in Example 1.

[3] = tested on: SSTR4, APP, and NEP; test: Western blot expression of SSTR4, APP and NEP in brain tissue ex vivo; design: species or system mouse
Experimental: Protein expression of brain tissues was evaluated ex vivo, from flash frozen whole brain tissue following respective behavioral analyses, by Western blot analyses for SSTR4, APP and NEP. Tissues were homogenized in RIPA buffer containing protease inhibitor (Roche) using a 1:10 ratio (0.5 g=5 ml), transferred into tubes and spun at 10,000×g for 20 min (4° C.). The supernatant was taken and a protein assay was used to determine the amount of protein present. Samples (100 μg) were separated using an electrophoretic field on Biorad (Bio-Rad, Hercules, Calif.) Tris HCl gels (10%) at 175 V for 70 min following heating at 95° C. for 5 min. GelCode Blue Stain (Pierce, Rockford, Ill.) was used to confirm appropriate protein loading. The proteins were then transferred to nitrocellulose membranes with 240 mA at for 45 min (4° C.). The membranes were then blocked using 5% nonfat milk-Tris-buffered saline (20 mM Tris base, 137 mM NaCl, pH 7.6) with 0.1% Tween-20 for 4 h and then incubated overnight at 4° C. with primary antibodies (1:1,000-1:2,000 dilution) in PBS-0.5% BSA. Antibodies shown effective: SSTR4 (Sigma-Aldrich), NEP (Millipore, Billerica, Mass.), and APP (Millipore). The membranes were then washed with 5% nonfat milk-Tris-buffered saline buffer before incubation with the respective secondary antibody at a 1:2,000 dilution (in PBS-0.5% BSA) for 60 min at room temperature. Blots were developed using the enhanced chemiluminescence method (ECL+; Amersham Life Science Products; Springfield, Ill.), and protein bands visualized on X-ray film. Optical densities were measured by densitometer (Biorad) and evaluated against respective controls. After each initial protein expression assessment, membranes were then stripped and re-probed with actin (Sigma-Aldrich).
Protein expression in brain tissues was evaluated ex vivo as described above in Example 1.

[4] = tested on: SAMP8 mice; test: Object-recognition task after i.c.v. injection; type: in vivo, mouse; conditions: 0.2 μg i.c.v., 48 h after injection
Experimental: Object-recognition is a non-spatial memory recognition task, shown to be effective in SAMP8 mice (Bevins and Besheer, 2006; Fontan-Lozano et al., 2008). In this task, treated and control mice are measured as to the difference in time spent with a familiar (or remembered) object and a novel object. Mice received a single optimized dose (0.2 μg) determined from T-maze assessment, against vehicle control (0 μg). Dosing was performed 24 h prior to the initial training period and the recognition task was evaluated 24 h after training (i.e. 48 h after dosing). Mice were habituated to an empty apparatus (55×40×40 cm) for 5 min a day for 3 days prior to entry of the objects. On the day of training two similar objects were placed in the maze. Mice were placed in the maze and allowed to explore the objects for 5 min. In the 24-h retention test, one of the same objects is placed in the maze, as well as a new object in a new location. The difference in percent time spent exploring the new object over the familiar object was then determined. The criteria for exploration were based strictly on active exploration, where the mouse had both forelimbs within a circle of 1.5 cm around the object, with its head oriented toward it, or when touching it with its vibrissae. At the end of the retention trial, mice were decapitated and the brains flash frozen and stored at −80° C. for subsequent analyses.

[5] = tested on: SAMP8 mice; test: T-maze acquisition and retention after chronic i.p. administration; type: in vivo, mouse; conditions: for mean trials to first avoidance versus vehicle (learning): day 21
Experimental: T-Maze testing. The T-maze avoidance apparatus, training and testing procedures were as previously described in Example 1. […] Dosing range for i.p. administration (0.2-200 μg) was extrapolated from previous i.c.v. administration data as described in Example 1 above. Respective doses were given once a day over a period of 28 days. Learning and memory was assessed by the T-maze model. Learning evaluations were conducted at three weeks of treatment (day 21), while memory was assessed after one additional week of treatment (day 28). […] At the end of the evaluations mice were decapitated and the brains flash frozen and stored at −80° C. for subsequent analyses.

[6] = tested on: APPswe transgenic mice; test: T-maze avoidance learning acquisition in APPswe transgenic mice after i.c.v. injection; type: in vivo, mouse; conditions: 0.2 μg i.c.v.
Description: The APPswe transgenic mouse carries a transgene coding for the 695-amino acid isoform of human Alzheimer A R precursor protein. (K. Hsiao et al., 274 Science 99-102, 1996). These mice express high concentrations of the mutant AR , with significant amyloid plaques, and display memory deficits. At 11-13 months of age they show a 14-fold increase in AR (1-42/43) over those at 2-8 months of age. Elevated AR levels are associated with the development of amyloid deposits in frontal, temporal and entorhinal cortex, hippocampus, presubiculum, and cerebellum, with some mice developing the signature cross pattern of deposits seen inhuman AD. […] Thus APPswe transgenic mice are also a good model for studying APP expression, amyloid plaque formation, neuronal decline, and memory loss associated with AD, and for studying drug candidates for treatment or prevention of AD. APPswe (Tg2576) mice, and non-transgenic siblings as controls, were obtained from Taconic (New York). All other materials and methods were as described for Example 1.
AAPswe transgenic mice were administered 0.2 μg of NNC 26-91001.c.v. after a 2 hour fasting period, followed by an additional hour of fasting after administration. Animals were tested using the T-maze model as described above in Example 1.

[7] = Body weight and behaviour during chronic i.p. dosing; type: in vivo, mouse; conditions: SAMP8 mice, i.p. 0.2-200 μg once a day, 28 days
[8] = 0.2 μg i.c.v., after object-recognition task

C[C@@H](O)[C@@H]1NC(=O)[C@H](CCCCN)NC(=O)[C@@H](Cc2c[nH]c3ccccc23)NC(=O)[C@H](Cc2ccccc2)NC(=O)[C@@H](NC(=O)[C@H](N)Cc2ccccc2)CSSC[C@@H](C(=O)N[C@H](CO)[C@@H](C)O)NC1=O [octreotide, reference compound]
learned acquisition compared to vehicle ([1]; SAMP8 mice, i.c.v., any dose 0.002-2.0 μg): no significant effects

CC(C)C[C@H](NP(=O)(O)O[C@@H]1O[C@@H](C)[C@H](O)[C@@H](O)[C@H]1O)C(=O)N[C@@H](Cc1c[nH]c2ccccc12)C(=O)O [phosphoramidon, reference compound]
mean trials to first avoidance, vehicle versus vehicle combined with phosphoramidon ([1]; any dose of phosphoramidon (1 or 10 mM), i.c.v.): No significant change
Aβ42 within vehicle groups (vehicle alone, +1 mM or +10 mM phosphoramidon) ([2]; i.c.v., post-T-maze): No change

S=C(NCCCc1c[nH]cn1)NCCCN(Cc1ccc(Cl)c(Cl)c1)c1ccc(Br)cn1 [NNC 26-9100]
mean trials to first avoidance versus NNC 26-9100 alone ([1]; 0.2 μg i.c.v. co-administered with 1 mM phosphoramidon, p<0.05): significant increase in the number of mean trials to first avoidance
trials to first avoidance versus NNC 26-9100+1 mM phosphoramidon ([1]; 0.2 μg i.c.v. co-administered with 10 mM phosphoramidon): significantly higher number of trials to first avoidance
mean trials to first avoidance versus NNC 26-9100 alone ([1]; 0.2 μg i.c.v. co-administered with 10 mM phosphoramidon, p<0.01): significant increase in the number of mean trials to first avoidance
learned avoidance (mean trials to first avoidance) compared to vehicle ([1]; SAMP8 mice, i.c.v., 0.2 μg, T-maze 24 h after injection): significant improvement; also recorded: significantly lower number of mean trials to first avoidance
Aβ42 versus NNC 26-9100 alone group ([2]; 0.2 μg i.c.v. + 10 mM phosphoramidon, post-T-maze): significant increase
Aβ42 versus vehicle [2, 8]: no significant change
decrease in Aβ42 compared to vehicle ([2]; SAMP8 brain, post-T-maze, i.c.v., all doses 0.002-2.0 μg): ~20%
Aβ42 versus vehicle ([2]; chronic i.p. 20 μg daily, 28 days): significant decrease
Aβ42 versus vehicle ([2]; chronic i.p., any other dose (0.2-200 μg range)): no significant changes
SSTR4, APP, or NEP expression, NNC 26-9100 alone, co-administered phosphoramidon, and versus vehicle alone ([3]; 0.2 μg i.c.v., +1 mM or +10 mM phosphoramidon): No changes
expression of SSTR4, APP, or NEP versus vehicle [3, 8]: No significant changes
expression of SSTR4, APP, or NEP compared to vehicle ([3]; SAMP8 brain, i.c.v., 0.002-2.0 μg): no significant changes
expression of SSTR4, APP, or NEP versus vehicle ([3]; chronic i.p., any dose (0.2-200 μg daily), 28 days): No significant changes
enhancement in recognition memory (time with novel object) versus vehicle [4]: approximately 2 fold
mean trials to first avoidance versus vehicle (learning) ([5]; i.p. 20 μg daily): significantly lower number of mean trials to first avoidance
mean trials to criterion versus vehicle (memory) ([5]; i.p. 20 μg daily, day 28, p<0.01): significantly lower mean trials to criterion
mean trials to first avoidance versus vehicle (learning) ([5]; i.p. 200 μg daily): significantly lower number of mean trials to first avoidance
mean trials to criterion versus vehicle (memory) ([5]; i.p. 200 μg daily, day 28, p<0.05): significantly lower mean trials to criterion
avoidance learning acquisition [6]: effects in AAPswe transgenic mice similar to those obtained in SAMP8 mice
weight loss or abnormal behaviors [7]: no animals in the study exhibiting weight loss or abnormal behaviors

S=C(NCCCc1c[nH]cn1)N(CCc1c[nH]c2ccccc12)Cc1cccc(Cl)c1Cl [LIU 686-06A]
mean trials to first avoidance versus vehicle (learning) ([5]; i.p. 0.2 μg daily): significantly lower number of mean trials to first avoidance
mean trials to criterion versus vehicle ([5]; i.p. 20 μg daily, day 21 as printed): significantly lower number of mean trials to first criterion
